The record followed here is patent US12098145B2 (Libra Therapeutics, Inc., priority 2022, dated 2024).

Structures can show the parent of a compound that is named as a salt. Where two headings read alike, the source gives them in different places.

The target in one test is T1, TRPML1 (Homo sapiens, UniProt Q9GZU1).
T1 construct: expressed in transfected cells; host or cells: HEK T-REx cells stably expressing GCaMP6f and TRPML1
Put plainly: Cellular TRPML1 assay (FLIPR, GCaMP6f calcium read-out). The test is classed as cell-based. The settings on record: HEKT-REx/GCaMP6f/TRPML1 cells, FLIPR TETRA, kinetic response over 300 seconds; read-out: TRPML1 FLIPR pEC50 (converted). The method, boiled down: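 Read-out is GCaMP6f fluorescence over 300 s after compound addition in Ca2+-free Tyrode's buffer, final DMSO 0.5%, on FLIPR Tetra. Cells are HEK T-REx stably co-expressing the indicator and TRPML1, plated 24 h earlier in Optimem + 0.5% FBS and pre-incubated ~10 min at room temperature.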

The next test concerns TFEB. Description: TFEB translocation assay (TFEB reporter in U2OS cells, imaging). The test is classed as cell-based. The settings on record: Homo sapiens, read-out: TFEB Translocation pEC50 (converted). The method, boiled down:
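Activity expresses the mean nuclear-to-cytosolic reporter ratio scaled between DMSO (0%) and Torin-1 (100%) controls. Read-out came from high-content imaging of fixed, Hoechst-counterstained U2OS cells carrying mRFP-tagged TFEB after 2 h compound exposure at 37 °C in Opti-MEM with 0.015% Tween 80 and 0.5% DMSO.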

Where [1] appears, read: U2OS cell line with TFEB reporter, 2 hours incubation, nucleus to cytoplasm ratio, normalized to Torin-1.

T1 sequence (Q9GZU1 whole entry): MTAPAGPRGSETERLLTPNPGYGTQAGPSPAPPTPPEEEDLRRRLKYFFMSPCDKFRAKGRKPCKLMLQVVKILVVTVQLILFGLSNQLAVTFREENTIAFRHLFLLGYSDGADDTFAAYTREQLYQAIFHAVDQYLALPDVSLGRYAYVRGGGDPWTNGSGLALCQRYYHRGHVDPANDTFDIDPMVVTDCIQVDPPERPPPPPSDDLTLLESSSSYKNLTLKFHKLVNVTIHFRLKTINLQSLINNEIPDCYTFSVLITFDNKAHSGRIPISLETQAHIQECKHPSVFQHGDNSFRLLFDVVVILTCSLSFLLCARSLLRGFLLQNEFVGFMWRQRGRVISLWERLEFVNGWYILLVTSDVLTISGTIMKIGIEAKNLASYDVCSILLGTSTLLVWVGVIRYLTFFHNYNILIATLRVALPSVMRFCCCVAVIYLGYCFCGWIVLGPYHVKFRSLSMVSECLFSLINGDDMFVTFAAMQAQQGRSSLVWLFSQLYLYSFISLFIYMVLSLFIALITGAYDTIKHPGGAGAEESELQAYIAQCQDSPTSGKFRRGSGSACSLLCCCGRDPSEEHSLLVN

On to `COCc1oc(N2CC(C)(CO)C2)nc1C(=O)Nc1cc(C)c(OC2CC3CC(C3)C2)c(F)c1` (centres unmarked) [Example 296, N-(4-(bicyclo[3.1.1]heptan-3-yloxy)-3-fluoro-5-methylphenyl)-2-(3-(hydroxymethyl)-3-methylazetidin-1-yl)-5-(methoxymethyl)oxazole-4-carboxamide], for which the EC50 on TRPML1 and in the test on TFEB (setting [1]) was 10 to 1000 nM each time.
For the compound `CCC1(CC)CN(c2nc(C(=O)Nc3cc(F)c(O[C@@H]4C[C@@H]5C[C@@H]5C4)c(F)c3)c(CN3CCCC3)o2)C1` [Example 299, N-(4-(cis-bicyclo[3.1.0]hexan-3-yloxy)-3,5-difluorophenyl)-2-(3,3-diethylazetidin-1-yl)-5-(pyrrolidin-1-ylmethyl)oxazole-4-carboxamide], the EC50 at TRPML1 and with TFEB (setting [1]) was 10 to 1000 nM throughout.
For `CCN(C)Cc1oc(N2CC(CC)(OC)C2)nc1C(=O)Nc1cc(F)c(OC2CC3CC(C3)C2)c(F)c1` (centres unmarked) [Example 302, N-(4-(bicyclo[3.1.1]heptan-3-yloxy)-3,5-difluorophenyl)-5-((ethyl(methyl)amino)methyl)-2-(3-ethyl-3-methoxyazetidin-1-yl)oxazole-4-carboxamide], the EC50 on TRPML1 and in the test on TFEB (setting [1]) was 10 to 1000 nM each time.
Turning to `CCC1(OC)CN(c2nc(C(=O)Nc3cc(F)c(O[C@@H]4C[C@@H]5C[C@@H]5C4)c(F)c3)c(CN(C)C)o2)C1` [Example 303, N-(4-(cis-bicyclo[3.1.0]hexan-3-yloxy)-3,5-difluorophenyl)-5-((dimethylamino)methyl)-2-(3-ethyl-3-methoxyazetidin-1-yl)oxazole-4-carboxamide], the EC50 at TRPML1 and in the test with TFEB (setting [1]) was 10 to 1000 nM in each case.
Regarding `CCN(C)Cc1oc(N2CC(CC)(OC)C2)nc1C(=O)Nc1cc(F)c(O[C@@H]2C[C@@H]3C[C@@H]3C2)c(F)c1` [Example 304, N-(4-(cis-bicyclo[3.1.0]hexan-3-yloxy)-3,5-difluorophenyl)-5-((ethyl(methyl)amino)methyl)-2-(3-ethyl-3-methoxyazetidin-1-yl)oxazole-4-carboxamide], the EC50 at TRPML1 and in the test with TFEB (setting [1]) was 10 to 1000 nM in each case.
For `CCN(C)Cc1oc(N2CC(C)(OC)C2)nc1C(=O)Nc1cc(F)c(OC2CC3CC(C3)C2)c(F)c1` (centres unmarked) [Example 307, N-(4-(bicyclo[3.1.1]heptan-3-yloxy)-3,5-difluorophenyl)-5-((ethyl(methyl)amino)methyl)-2-(3-methoxy-3-methylazetidin-1-yl)oxazole-4-carboxamide hydrochloride], the EC50 on TRPML1 and with TFEB (setting [1]) was 10 to 1000 nM in each case.
Consider `O=C(Nc1cc(F)c(O[C@@H]2C[C@@H]3C[C@@H]3C2)c(F)c1)c1nc(N2CCCC2)oc1CN1CCCC1` [Example 308, N-(4-(cis-bicyclo[3.1.0]hexan-3-yloxy)-3,5-difluorophenyl)-2-(pyrrolidin-1-yl)-5-(pyrrolidin-1-ylmethyl)oxazole-4-carboxamide hydrochloride], for which the EC50 at TRPML1 and with TFEB (setting [1]) was 10 to 1000 nM throughout.
For `CCN(C)Cc1oc(N2CC(CC)(OC)C2)nc1C(=O)Nc1cc(O)c(OC2CC3CC(C3)C2)c(F)c1` (centres unmarked) [Example 309, N-(4-(bicyclo[3.1.1]heptan-3-yloxy)-3-fluoro-5-hydroxyphenyl)-5-((ethyl(methyl)amino)methyl)-2-(3-ethyl-3-methoxyazetidin-1-yl)oxazole-4-carboxamide], the EC50 was 1000 to 10000 nM on TRPML1 and 1000 to 10000 nM in the test on TFEB (U2OS, 2 h).
`O=C(Nc1cc(F)c2c(c1)CCN2C1CC2CC2C1)c1nc(N2CCCC2)oc1CC(F)(F)F` (centres unmarked) [Example 315, N-(1-(bicyclo[3.1.0]hexan-3-yl)-7-fluoroindolin-5-yl)-2-(pyrrolidin-1-yl)-5-(2,2,2-trifluoroethyl)oxazole-4-carboxamide]: the figures for the EC50 on TRPML1 and in the test on TFEB (setting [1]) were 1000 to 10000 nM and 10 to 1000 nM, respectively.
With `CCc1oc(N2CC(CC)(CC)C2)nc1C(=O)Nc1cc(F)c2c(c1)CCN2C1CC2CC2C1` (centres unmarked) [Example 316, N-(1-(bicyclo[3.1.0]hexan-3-yl)-7-fluoroindolin-5-yl)-2-(3,3-diethylazetidin-1-yl)-5-ethyloxazole-4-carboxamide], the EC50 at TRPML1 and in the test on TFEB (setting [1]) was 10 to 1000 nM throughout.
